Measurements reported in ChEMBL document CHEMBL1131172 (J Med Chem, 1998).

Tests used:
SF-295 [1] = assay: Inhibition of the growth of CNS cancer(SF-295) cell line at 0.01 uM; assay type: functional; settings: Homo sapiens
NCI-H23 [2] = assay: Inhibition of the growth of non-small-cell lung cancer (NCI-H23) cell line at 0.01 uM; assay type: functional; settings: Homo sapiens
NCI-H322M [3] = assay: inhibition of the growth of non-small-cell lung cancer (NCI-H322M) cell line; assay type: functional; settings: Homo sapiens
SF-539 [4] = assay: inhibition of the growth of CNS cancer(SF-539) cell line; assay type: functional; settings: Homo sapiens
OVCAR-8 [5] = assay: inhibition of the growth of ovarian cancer(OVCAR-8) cell line; assay type: functional; settings: Homo sapiens
MCF7 [6] = assay: Inhibition of the growth of breast cancer (MCF-7) cell line at 0.01 uM; assay type: functional; settings: Homo sapiens
MDA-N [7] = assay: Inhibition of the growth of breast cancer(MDA-N) cell line at 0.01 uM; assay type: functional; settings: Homo sapiens
MDA-MB-435 [8] = assay: inhibition of the growth of breast cancer (MDA-MB-435) cell line; assay type: functional; settings: Homo sapiens
SR [9] = assay: Inhibition of the growth of leukemia(SR) cell line at 0.01 uM; assay type: functional; settings: Homo sapiens
Dihydrofolate reductase [10] = molecular target: T1, Dihydrofolate reductase (Pneumocystis carinii, UniProt P16184)
T1 sequence (P16184 whole entry): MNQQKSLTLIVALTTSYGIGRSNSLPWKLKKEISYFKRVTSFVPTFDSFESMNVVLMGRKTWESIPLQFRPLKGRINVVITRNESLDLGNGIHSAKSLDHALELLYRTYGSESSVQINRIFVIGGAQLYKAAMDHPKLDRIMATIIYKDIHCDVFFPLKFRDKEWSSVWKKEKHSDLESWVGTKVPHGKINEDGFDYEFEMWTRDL
Description: Inhibitory activity against dihydrofolate reductase (DHFR) from Pneumocystis carinii

OVCAR-8 [11] = assay: Inhibition of the growth of ovarian cancer(OVCAR-8) cell line at 0.01 uM; assay type: functional; settings: Homo sapiens
NCI-H460 [12] = assay: inhibition of the growth of non-small-cell lung cancer (NCI-H460) cell line; assay type: functional; settings: Homo sapiens
SNB-19 [13] = assay: inhibition of the growth of CNS cancer(SNB-19) cell line; assay type: functional; settings: Homo sapiens
786-0 [14] = assay: Inhibition of the growth of renal cancer(786-0) cell line at 0.01 uM; assay type: functional; settings: Homo sapiens
SNB-19 [15] = assay: Inhibition of the growth of CNS cancer(SNB-19) cell line at 0.01 uM; assay type: functional; settings: Homo sapiens
CAKI-1 [16] = assay: Inhibition of the growth of renal cancer(CAKI-1) cell line at 0.01 uM; assay type: functional; settings: Homo sapiens
SK-MEL-5 [17] = assay: Inhibition of the growth of melanoma cancer (SK-MEL-5) cell line at 0.01 uM; assay type: functional; settings: Homo sapiens
NCI-H522 [18] = assay: Inhibition of the growth of non-small-cell lung cancer (NCI-H522) cell line at 0.01 uM; assay type: functional; settings: Homo sapiens
SF-539 [19] = assay: Inhibition of the growth of CNS cancer(SF-539) cell line at 0.01 uM; assay type: functional; settings: Homo sapiens
MDA-MB-435 [20] = assay: Inhibition of the growth of breast cancer (MDA-MB-435) cell line at 0.01 uM; assay type: functional; settings: Homo sapiens
MOLT-4 [21] = assay: Inhibition of the growth of leukemia (MOLT-4) cell line at 0.01 uM; assay type: functional; settings: Homo sapiens
NCI-H460 [22] = assay: Inhibition of the growth of non-small-cell lung cancer (NCI-H460) cell line at 0.01 uM; assay type: functional; settings: Homo sapiens
UO-31 [23] = assay: inhibition of the growth of renal cancer(UO-31) cell line; assay type: functional; settings: Homo sapiens
SF-268 [24] = assay: inhibition of the growth of CNS cancer(SF-268) cell line; assay type: functional; settings: Homo sapiens
DU-145 [25] = assay: Inhibition of the growth of prostate cancer(DU-145) cell line at 0.01 uM; assay type: functional; settings: Homo sapiens
SR [26] = assay: Inhibition of the growth of leukemia(SR) cell line; assay type: functional; settings: Homo sapiens
NCI/ADR-RES [27] = assay: inhibition of the growth of breast cancer (MCF7/ADR-RES) cell line; assay type: functional; settings: Homo sapiens
HCT-116 [28] = assay: inhibition of the growth of colon cancer(HCT116) cell line; assay type: functional; settings: Homo sapiens
A549 [29] = assay: inhibition of the growth of non-small-cell lung cancer (A549/ATCC) cell line; assay type: functional; settings: Homo sapiens
CAKI-1 [30] = assay: inhibition of the growth of renal cancer(CAKI-1) cell line; assay type: functional; settings: Homo sapiens
RPMI-8226 [31] = assay: Inhibition of the growth of leukemia (RPMI-8226) cell line at 0.01 uM; assay type: functional; settings: Homo sapiens
NCI-H23 [32] = assay: Inhibition of the growth of non-small-cell lung cancer (NCI-H23) cell line; assay type: functional; settings: Homo sapiens
IGROV-1 [33] = assay: Inhibition of the growth of ovarian cancer(IGROVI) cell line at 0.01 uM; assay type: functional; settings: Homo sapiens
NCI-H322M [34] = assay: Inhibition of the growth of non-small-cell lung cancer (NCI-H322M) cell line at 0.01 uM; assay type: functional; settings: Homo sapiens
KM12 [35] = assay: inhibition of the growth of colon cancer(KM-12) cell line; assay type: functional; settings: Homo sapiens
HCT-15 [36] = assay: inhibition of the growth of colon cancer(HCT-15) cell line; assay type: functional; settings: Homo sapiens
M14 [37] = assay: Inhibition of the growth of melanoma cancer (M14) cell line at 0.01 uM; assay type: functional; settings: Homo sapiens
UO-31 [38] = assay: Inhibition of the growth of renal cancer(UO-31) cell line at 0.01 uM; assay type: functional; settings: Homo sapiens
A549 [39] = assay: Inhibition of the growth of non-small-cell lung cancer (A549/ATCC) cell line at 0.01 uM; assay type: functional; settings: Homo sapiens
MOLT-4 [40] = assay: Inhibition of the growth of leukemia (MOLT-4) cell line; assay type: functional; settings: Homo sapiens
KM12 [41] = assay: Inhibition of the growth of colon cancer(KM-12) cell line at 0.01 uM; assay type: functional; settings: Homo sapiens
DU-145 [42] = assay: inhibition of the growth of prostate cancer(DU-145) cell line; assay type: functional; settings: Homo sapiens
MDA-N [43] = assay: inhibition of the growth of breast cancer(MDA-N) cell line; assay type: functional; settings: Homo sapiens
MCF7 [44] = assay: inhibition of the growth of breast cancer (MCF-7) cell line; assay type: functional; settings: Homo sapiens
HCT-15 [45] = assay: Inhibition of the growth of colon cancer(HCT-15) cell line at 0.01 uM; assay type: functional; settings: Homo sapiens
Dihydrofolate reductase [46] = molecular target: T2, Dihydrofolate reductase (Rattus norvegicus, UniProt Q920D2)
T2 sequence (Q920D2 whole entry): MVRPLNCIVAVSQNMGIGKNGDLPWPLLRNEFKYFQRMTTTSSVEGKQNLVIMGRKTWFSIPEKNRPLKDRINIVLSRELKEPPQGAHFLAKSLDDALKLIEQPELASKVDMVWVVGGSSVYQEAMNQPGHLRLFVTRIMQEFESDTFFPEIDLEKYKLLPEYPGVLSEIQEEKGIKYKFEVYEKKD
Description: Inhibitory activity against dihydrofolate reductase (DHFR) from rat liver

HCT-116 [47] = assay: Inhibition of the growth of colon cancer(HCT116) cell line at 0.01 uM; assay type: functional; settings: Homo sapiens
NCI-H522 [48] = assay: inhibition of the growth of non-small-cell lung cancer (NCI-H522) cell line; assay type: functional; settings: Homo sapiens
NCI/ADR-RES [49] = assay: Inhibition of the growth of breast cancer (MCF7/ADR-RES) cell line at 0.01 uM; assay type: functional; settings: Homo sapiens
[50] = molecular target: T3, Bifunctional dihydrofolate reductase-thymidylate synthase (Toxoplasma gondii, UniProt Q07422)
T3 sequence (Q07422 whole entry): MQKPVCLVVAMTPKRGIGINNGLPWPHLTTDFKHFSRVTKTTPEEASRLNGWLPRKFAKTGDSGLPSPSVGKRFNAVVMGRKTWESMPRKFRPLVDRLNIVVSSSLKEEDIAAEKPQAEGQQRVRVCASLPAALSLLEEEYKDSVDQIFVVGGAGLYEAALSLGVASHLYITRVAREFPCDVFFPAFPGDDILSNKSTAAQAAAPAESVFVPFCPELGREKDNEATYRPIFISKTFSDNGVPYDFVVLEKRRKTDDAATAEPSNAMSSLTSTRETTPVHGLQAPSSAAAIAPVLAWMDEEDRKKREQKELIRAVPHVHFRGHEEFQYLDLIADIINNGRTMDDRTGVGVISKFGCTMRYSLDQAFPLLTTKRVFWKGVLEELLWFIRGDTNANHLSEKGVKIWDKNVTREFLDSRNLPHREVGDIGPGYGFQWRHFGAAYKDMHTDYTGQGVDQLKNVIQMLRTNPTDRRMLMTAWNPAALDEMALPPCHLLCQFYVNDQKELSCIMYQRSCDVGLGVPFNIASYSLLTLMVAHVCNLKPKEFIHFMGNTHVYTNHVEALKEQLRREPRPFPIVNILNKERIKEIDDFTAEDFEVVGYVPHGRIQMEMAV
Description: Inhibitory activity against dihydrofolate reductase (DHFR) from Toxoplasma gondii

SK-MEL-5 [51] = assay: inhibition of the growth of melanoma cancer (SK-MEL-5) cell line; assay type: functional; settings: Homo sapiens
M14 [52] = assay: inhibition of the growth of melanoma cancer (M14) cell line; assay type: functional; settings: Homo sapiens
SF-268 [53] = assay: Inhibition of the growth of CNS cancer(SF-268) cell line at 0.01 uM; assay type: functional; settings: Homo sapiens
786-0 [54] = assay: inhibition of the growth of renal cancer(786-0) cell line; assay type: functional; settings: Homo sapiens
SF-295 [55] = assay: inhibition of the growth of CNS cancer(SF-295) cell line; assay type: functional; settings: Homo sapiens
RPMI-8226 [56] = assay: Inhibition of the growth of leukemia (RPMI-8226) cell line; assay type: functional; settings: Homo sapiens
IGROV-1 [57] = assay: inhibition of the growth of ovarian cancer(IGROVI) cell line; assay type: functional; settings: Homo sapiens

COc1ccc(OC)c(N(C)c2ccc3nc(N)nc(N)c3n2)c1
inhibition at 0.01 µM (SF-295 [1]): 69% | inhibition at 0.01 µM (NCI-H23 [2]): 78% | GI50 (NCI-H322M [3]): < 10 nM | GI50 (SF-539 [4]): < 10 nM | GI50 (OVCAR-8 [5]): < 10 nM | inhibition at 0.01 µM (MCF7 [6]): 58% | inhibition at 0.01 µM (MDA-N [7]): 59% | GI50 (MDA-MB-435 [8]): < 10 nM | inhibition at 0.01 µM (SR [9]): 68% | IC50 (Dihydrofolate reductase [10]): 34 nM | inhibition at 0.01 µM (OVCAR-8 [11]): 75% | GI50 (NCI-H460 [12]): < 10 nM | GI50 (SNB-19 [13]): < 10 nM | inhibition at 0.01 µM (786-0 [14]): 55% | inhibition at 0.01 µM (SNB-19 [15]): 73% | inhibition at 0.01 µM (CAKI-1 [16]): 70% | inhibition at 0.01 µM (SK-MEL-5 [17]): 76% | inhibition at 0.01 µM (NCI-H522 [18]): 67% | inhibition at 0.01 µM (SF-539 [19]): 65% | inhibition at 0.01 µM (MDA-MB-435 [20]): 70% | inhibition at 0.01 µM (MOLT-4 [21]): 54% | inhibition at 0.01 µM (NCI-H460 [22]): 82% | GI50 (UO-31 [23]): < 10 nM | GI50 (SF-268 [24]): < 10 nM | inhibition at 0.01 µM (DU-145 [25]): 57% | GI50 (SR [26]): < 10 nM | GI50 (NCI/ADR-RES [27]): < 10 nM | GI50 (HCT-116 [28]): < 10 nM | GI50 (A549 [29]): < 10 nM | GI50 (CAKI-1 [30]): < 10 nM | inhibition at 0.01 µM (RPMI-8226 [31]): 68% | GI50 (NCI-H23 [32]): < 10 nM | inhibition at 0.01 µM (IGROV-1 [33]): 66% | inhibition at 0.01 µM (NCI-H322M [34]): 58% | GI50 (KM12 [35]): < 10 nM | GI50 (HCT-15 [36]): < 10 nM | inhibition at 0.01 µM (M14 [37]): 61% | inhibition at 0.01 µM (UO-31 [38]): 100% | inhibition at 0.01 µM (A549 [39]): 72% | GI50 (MOLT-4 [40]): < 10 nM | inhibition at 0.01 µM (KM12 [41]): 55% | GI50 (DU-145 [42]): < 10 nM | GI50 (MDA-N [43]): < 10 nM | GI50 (MCF7 [44]): < 10 nM | inhibition at 0.01 µM (HCT-15 [45]): 70% | IC50 (Dihydrofolate reductase [46]): 4.2 nM | inhibition at 0.01 µM (HCT-116 [47]): 83% | GI50 (NCI-H522 [48]): < 10 nM | inhibition at 0.01 µM (NCI/ADR-RES [49]): 82% | IC50 [50]: 41 nM | GI50 (SK-MEL-5 [51]): < 10 nM | GI50 (M14 [52]): < 10 nM | inhibition at 0.01 µM (SF-268 [53]): 57% | GI50 (786-0 [54]): < 10 nM | GI50 (SF-295 [55]): < 10 nM | GI50 (RPMI-8226 [56]): < 10 nM | GI50 (IGROV-1 [57]): < 10 nM
